The numbers were not newly measured in PubChem BioAssay AID1259409 (Chemical Carcinogenesis Research Information System (CCRIS), 2018), which cites them from elsewhere.

For this series, the system named is rodent chemically induced tumor inhibition, incidence and multiplicity. The series can be described thus: CCRIS tumor inhibitor studies. To be noted: 10108-64-2, Species: RAT, Strain/Sex: WISTAR/MALE, Dose [Carcinogen]: 30 UMOL/KG IN 0.9% STERILE SALINE ONCE, Promoter: NONE USED.

As for `CC(=O)[O-].CC(=O)[O-].O.O.[Zn+2]`, the “tumour outcome (control, treated, inhibition, significance)” value was 7/30 (23%), 6/30 (20%), 13%, not calculated (Carcinogen: CADMIUM CHLORIDE, Dose [Inhibitor]: 0.1 MMOL/KG IN 0.9% STERILE SALINE ADMINISTERED IN 3 SEPARATE DOSES AT 6 HR PRIOR TO, CONCURRENTLY WITH AND 18 HR POST C, Route [Inhibitor]: SUBCUTANEOUS, Target Tissue: Type of Lesion: PROSTATE GLAND: ADENOMA); 7/30 (23%), 5/28 (18%), 22%, not calculated (Carcinogen: CADMIUM CHLORIDE, Dose [Inhibitor]: 0.3 MMOL/KG IN 0.9% STERILE SALINE ADMINISTERED IN 3 SEPARATE DOSES AT 6 HR PRIOR TO, CONCURRENTLY WITH AND 18 HR POST C, Route [Inhibitor]: SUBCUTANEOUS, Target Tissue: Type of Lesion: PROSTATE GLAND: ADENOMA); 11/26 (42%), 7/28 (25%), 40%, not calculated (Carcinogen: CADMIUM CHLORIDE, Dose [Inhibitor]: 1.0 MMOL/KG IN 0.9% STERILE SALINE ADMINISTERED IN 3 SEPARATE DOSES AT 6 HR PRIOR TO, CONCURRENTLY WITH AND 18 HR POST C, Route [Inhibitor]: SUBCUTANEOUS, Target Tissue: Type of Lesion: PROSTATE GLAND: ADENOMA); 7/30 (23%), 7/30 (23%), 0% (Carcinogen: CADMIUM CHLORIDE, Dose [Inhibitor]: 100 PPM IN DRINKING WATER BEGINNING 2 WK PRIOR TO CARCINOGEN DOSE AND CONTINUING FOR DURATION OF STUDY (STUDY DURATION:, Route [Inhibitor]: ORAL, Target Tissue: Type of Lesion: PROSTATE GLAND: ADENOMA); 13/30 (43%), 9/30 (30%), 30%, not calculated (Carcinogen: CADMIUM(II) CHLORIDE, Dose [Inhibitor]: 0.1 MMOL/KG IN 0.9% STERILE SALINE ADMINISTERED IN 3 SEPARATE DOSES AT 6 HR PRIOR TO CARCINOGEN DOSE, CONCURRENTLY WITH, Route [Inhibitor]: SUBCUTANEOUS, Target Tissue: Type of Lesion: INJECTION SITE: SARCOMA OR EPIDERMAL TUMOR); 22/30 (73%), 23/30 (77%), -5%, not calculated (Carcinogen: CADMIUM(II) CHLORIDE, Dose [Inhibitor]: 0.1 MMOL/KG IN 0.9% STERILE SALINE ADMINISTERED IN 3 SEPARATE DOSES AT 6 HR PRIOR TO CARCINOGEN DOSE, CONCURRENTLY WITH, Route [Inhibitor]: SUBCUTANEOUS, Target Tissue: Type of Lesion: TESTES: LEYDIG CELL ADENOMA OR MIXED SERTOLI-LEYDIG CELL TUMOR). For the same compound, the “tumour outcome (control, treated, inhibition, significance)” value by setting is: (Carcinogen: CADMIUM(II) CHLORIDE, Dose [Inhibitor]: 0.3 MMOL/KG IN 0.9% STERILE SALINE ADMINISTERED IN 3 SEPARATE DOSES AT 6 HR PRIOR TO CARCINOGEN DOSE, CONCURRENTLY WITH, Route [Inhibitor]: SUBCUTANEOUS, Target Tissue: Type of Lesion: INJECTION SITE: SARCOMA) 13/30 (43%), 10/29 (34%), 21%, not calculated; (Carcinogen: CADMIUM(II) CHLORIDE, Dose [Inhibitor]: 0.3 MMOL/KG IN 0.9% STERILE SALINE ADMINISTERED IN 3 SEPARATE DOSES AT 6 HR PRIOR TO CARCINOGEN DOSE, CONCURRENTLY WITH, Route [Inhibitor]: SUBCUTANEOUS, Target Tissue: Type of Lesion: TESTES: LEYDIG CELL ADENOMA) 22/30 (73%), 14/29 (48%), 34%, not calculated; (Carcinogen: CADMIUM(II) CHLORIDE, Dose [Inhibitor]: 1.0 MMOL/KG IN 0.9% STERILE SALINE ADMINISTERED IN 3 SEPARATE DOSES AT 6 HR PRIOR TO CARCINOGEN DOSE, CONCURRENTLY WITH, Route [Inhibitor]: SUBCUTANEOUS, Target Tissue: Type of Lesion: INJECTION SITE: SARCOMA OR HEMANGIOMA OR EPIDERMAL TUMOR) 13/30 (43%), 9/29 (31%), 28%, not calculated; (Carcinogen: CADMIUM(II) CHLORIDE, Dose [Inhibitor]: 1.0 MMOL/KG IN 0.9% STERILE SALINE ADMINISTERED IN 3 SEPARATE DOSES AT 6 HR PRIOR TO CARCINOGEN DOSE, CONCURRENTLY WITH, Route [Inhibitor]: SUBCUTANEOUS, Target Tissue: Type of Lesion: INJECTION SITE: SARCOMA) 3/29 (10%), 1/29 (3%), 70%, not calculated; (Carcinogen: CADMIUM(II) CHLORIDE, Dose [Inhibitor]: 1.0 MMOL/KG IN 0.9% STERILE SALINE ADMINISTERED IN 3 SEPARATE DOSES AT 6 HR PRIOR TO CARCINOGEN DOSE, CONCURRENTLY WITH, Route [Inhibitor]: SUBCUTANEOUS, Target Tissue: Type of Lesion: TESTES: LEYDIG CELL ADENOMA OR SEMINOMA) 4/29 (14%), 7/30 (23%), -64%, not calculated; (Carcinogen: CADMIUM(II) CHLORIDE, Dose [Inhibitor]: 1.0 MMOL/KG IN 0.9% STERILE SALINE ADMINISTERED IN 3 SEPARATE DOSES AT 6 HR PRIOR TO CARCINOGEN DOSE, CONCURRENTLY WITH, Route [Inhibitor]: SUBCUTANEOUS, Target Tissue: Type of Lesion: TESTES: LEYDIG CELL ADENOMA) 22/30 (73%), 3/28 (11%), 85%, not calculated. For the same compound, the “tumour outcome (control, treated, inhibition, significance)” value was 13/30 (43%), 1/30 (3%), 93%, not calculated (Carcinogen: CADMIUM(II) CHLORIDE, Dose [Inhibitor]: 100 PPM IN DRINKING WATER BEGINNING 2 WK PRIOR TO CARCINOGEN DOSE AND CONTINUING FOR DURATION OF STUDY (STUDY DURATION:, Route [Inhibitor]: ORAL, Target Tissue: Type of Lesion: INJECTION SITE: SARCOMA AND FIBROMA) and 22/30 (73%), 25/30 (83%), -14%, not calculated (Carcinogen: CADMIUM(II) CHLORIDE, Dose [Inhibitor]: 100 PPM IN DRINKING WATER BEGINNING 2 WK PRIOR TO CARCINOGEN DOSE AND CONTINUING FOR DURATION OF STUDY (STUDY DURATION:, Route [Inhibitor]: ORAL, Target Tissue: Type of Lesion: TESTES: LEYDIG CELL ADENOMA).
